Tests used:
[1] = In vivo pharmacokinetic study, rat; conditions: for DNAUC / T 1/2: Rat; for clearance / Vd / bioavailability: rat, blood; for clearance / Vd: intravenous; for Vd: read-out: Vss; for bioavailability: oral
Method: (§1) In vivo pharmacokinetic studies were conducted in mouse, rat, dog, or cynomolgus monkey to determine clearance, oral exposure and bioavailability (% F). Solution doses of the compounds were administered intravenously through catheters or orally by gavage. Blood samples were collected at the following time points (n=2 or 3/route/species): 0.083 (IV only), 0.167 (IV only), 0.25, 0.5, 1, 2, 4, 6, 8, 12, and 24 h. Non-compartmental pharmacokinetic parameters were determined using Phoenix Winnonlin 6.1 (Pharsight, Mountain View, Calif.). Bioavailability of the oral formulation of each compound were calculated as the ratio of the oral dose normalized AUCinf to the intravenous dose normalized AUCinf. Results are expressed in Table 2.

[2] = Hepatocyte incubations, metabolic stability; type: in vitro ADME; design: dose or concentration left out as unconfirmed; conditions: cryopreserved human hepatocytes, 0.25×10^6 cells, up to 120 min, 37 C
Method: Hepatocyte incubations were conducted using cryopreserved hepatocytes purchased from CellzDirect (Durham, N.C.). Cryopreserved hepatocytes were removed from liquid nitrogen and thawed according to XenoTech's guidelines listed in “XenoTech Protocol for Thawing Cryopreserved Hepatocytes” using Hepatocyte Isolation Kit K2000 (Dec. 13, 2004). Hepatocytes were diluted to 1 million cells in 1 mL of Williams E media containing 25 mM HEPES buffer and 2 mM Glutamax.
Hepatocyte incubations were carried out in 96-well plates on an Eppendorf shaker at 350 rpm at 37 C. Reaction mixtures consisted of 0.25×10^6 cells and […] test compound (to maintain a 0.05% final DMSO concentration) in a final volume of 0.5 mL. An initial time-point (t0) was collected and subsequent aliquots were collected at 15, 30, 60, 90, and 120 min. Reactions were terminated by transferring […] of the incubation mixture into a 96-well plate containing […] of an organic mixture [acetonitrile and methanol (80:20)] at 4° C. Precipitated protein was removed by centrifugation and the resultant supernatant was transferred to a new 96-well polypropylene plate for LC/MS/MS analysis. Drug-free matrix control and 2 QC standards (phenacetin and propranolol) were included in each experiment and treated in the same manner as test compound.
Metabolic stability expressed as the percentage of parent compound remaining was calculated from the peak area ratio of compound remaining after incubation (tx) compared to the time zero (t0) incubation.
The half-life (t1/2) was calculated using the following equation: […]
Where K is the slope of the ln % remaining vs. time regression. Half-life values were only reported when at least 15% loss of parent compound was observed.

[3] = system: sub-genomic HCV NS3-NS5B replicon genotype 1a (Huh-7 cells); experiment: Replicon luciferase cell based assay, genotype 1a; conditions: Hepatitis C virus; Huh-7 genotype 1a luciferase replicon, 48 hours; read-out: EC50 GT 1a
Method: (§2) 150 μL of a 1 mM stock solution in DMSO of each test compound was transferred into in the first column of a 96 well, V-bottom microplate, to give 200 times the top concentration of the required dilution series. Aliquots of 50 μL were added to each well of the remaining rows containing 100 μL of DMSO giving a 1:3 dilution series over ten points. Columns 11 and 12 contained DMSO only for the positive and negative control, respectively. 10 μL of each well were transferred into 90 μL of DMEM medium (Invitrogen #41965-039) supplemented with 5% v/v foetal calf serum, 1% v/v non-essential amino acids solution, 100 units/ml penicillin, 100 μg/ml streptomycin and 2 mM L-glutamine to give 20 times the top concentration of the required dilution series.
(§3) Suspensions were prepared from cultures of Huh-7 cells stably transfected with sub-genomic HCV NS3-NS5B replicons of either genotype 1b (the ET subline described by Pietschmann, T., Lohmann, V., Kaul, A., Krieger, N., Rinck, G., Rutter, G., Strand, D. & Bartenschlager, R., Journal of Virology, 2002, 76, 4008-4021), genotype 1a (subline 1.19 constructed in-house from H77 SG-Neo containing adaptive mutations P1496L and S2204I as described by Blight, K. J., McKeating, J. A., Marcotrigiano, J., and Rice, C. M. Journal of Virology, 2003, 77, 3180-3190), genotype 1b C316N (constructed in-house by site directed mutagenesis of the NS5B gene of the ET subline), or genotype 1a C316Y (constructed in-house by site directed mutagenesis of the NS5B gene of H77 SG-Neo containing adaptive mutations P1496L and S2204I as described by Blight, K. J., McKeating, J. A., Marcotrigiano, J., and Rice, C. M. Journal of Virology, 2003, 77, 3180-3190) linked to a firefly luciferase reporter gene. Monolayers nearing confluency were stripped from growth flasks with versene-trypsin solution and the cells re-suspended in assay medium comprising DMEM. 95 μL of suspension containing either 15,000 cells (genotype 1b luciferase replicon) or 20,000 cells (genotype 1a luciferase replicon) were added to all wells of a 96 well plate (Perkin Elmer, #6005686), except medium controls in column 12 of the assay plate. The cell suspension was dosed with 5 μL of compound solution and the plate was incubated for 48 hours at 37° C. in a 5% CO2 atmosphere.
(§4) For toxicity the cells in one plate were treated with Cell Titer Glo (Promega, #G7573). A solution of Cell Titer Glo was prepared according to the manufacturer's instructions, and 100 μL added to each well. The plate was then read for luminescence on an Envision. For potency a solution of Steady Glo (Promega, #E2550) was prepared according to the manufacturer's instructions and 100 μL added to each well. After a twenty minute incubation the plate was then read for luminescence on an Envision.
(§5) Potency: The luminescence values from all compound-free wells containing cells were averaged to obtain a positive control value. The mean luminescence value from the compound-free wells that had received no cells was used to provide the negative (background) control value. The readings from the wells at each compound concentration were taken and after the subtraction of the mean background from all values, were expressed as a percentage of the positive control signal. The quantifiable and specific reduction of luciferase signal in the presence of a drug is a direct measure of replicon inhibition. BioAssay Enterprise (CamebridgeSoft) with the XC50 module for curve fitting was used to plot the curve of percentage inhibition against compound concentration and derive the 50% inhibitory concentration (EC50) for the compound. EC50 is the effective concentration, that is, the concentration of compound where 50% maximal effect is observed. The EC50 values of two identical plates were averaged. The results are presented in Table 1 as EC50 for genotypes (GT) 1a, 1b, 1b 316N and 1a 316Y.

[4] = system: sub-genomic HCV NS3-NS5B replicon genotype 1b (Huh-7 cells); experiment: Replicon luciferase cell based assay, genotype 1b; conditions: Hepatitis C virus; Huh-7 genotype 1b luciferase replicon, 48 hours; read-out: EC50 GT1b
Method: as §2, §3, §4, §5

[5] = system: sub-genomic HCV NS3-NS5B replicon genotype 1b C316N (Huh-7 cells); experiment: Replicon luciferase cell based assay, genotype 1b C316N; conditions: Hepatitis C virus, Huh-7, 48 h, read-out: EC50 1b 316N
Method: as §2, §3, §4, §5

[6] = system: sub-genomic HCV NS3-NS5B replicon genotype 1a C316Y (Huh-7 cells); experiment: Replicon luciferase cell based assay, genotype 1a C316Y; conditions: Hepatitis C virus, Huh-7, 48 h, read-out: EC50 1a 316Y
Method: as §2, §3, §4, §5

[7] = In vivo pharmacokinetic study, mouse; conditions: for clearance / Vd / bioavailability: blood; for clearance / Vd: intravenous; for Vd: read-out: Vss; for bioavailability: oral
Method: as §1

[8] = In vivo pharmacokinetic study, dog; conditions: for DNAUC / T 1/2: Dog; for clearance / Vd / bioavailability: dog, blood; for clearance / Vd: intravenous; for Vd: read-out: Vss; for bioavailability: oral
Method: as §1

[9] = In vivo pharmacokinetic study, monkey; design: species or system cynomolgus monkey; conditions: for clearance / Vd / bioavailability: cynomolgus monkey; for clearance / Vd: intravenous; for Vd: read-out: Vss; for bioavailability: oral
Method: as §1

DNAUC [1]	T 1/2 [1]	clearance [1]	Vd [1]	bioavailability [1]	half-life [2]	DNAUC [8]	T 1/2 [8]	clearance [8]	Vd [8]	bioavailability [8]	Compound	EC50 [3]	EC50 [4]	EC50 [5]	EC50 [6]	other results
122 ng·h/mL/mg/kg	1.1 H	33.1 mL/min/kg	2.5 L/kg	23%	0.75 h						CNC(=O)c1c(-c2ccc(F)cc2)oc2cc(N(Cc3ccc(B(O)O)c(Cl)c3)S(C)(=O)=O)c(C3CC3)cc12 [B]					
403 ng·h/mL/mg/kg	2.2 H	18.6 mL/min/kg	0.8 L/kg	45%	1.03 h	1147 ng·h/mL/mg/kg	4.5 H	10.8 mL/min/kg	3.6 L/kg	70%	CNC(=O)c1c(-c2ccc(F)cc2)oc2cc(N(Cc3ccc(B(O)O)c(F)c3)S(C)(=O)=O)c(C3CC3)cc12 [D]					DNAUC ([7]; Mouse (avg)): 4108 ng·h/mL/mg/kg; T 1/2 ([7]; Mouse (avg)): 5 H; clearance ([7]; Mouse (avg)): 1.4 mL/min/kg; Vd ([7]; Mouse (avg)): 0.6 L/kg; bioavailability ([7]; Mouse (avg)): 37%; DNAUC ([9]; Monkey (plasma)): 101 ng·h/mL/mg/kg; T 1/2 ([9]; Monkey (plasma)): 1.1 H; clearance ([9]; Monkey (plasma)): 48.4 mL/min/kg; Vd ([9]; Monkey (plasma)): 1.8 L/kg; bioavailability ([9]; Monkey (plasma)): 28%
541 ng·h/mL/mg/kg	1.7 H	14.5 mL/min/kg	1 L/kg	47%	> 6 h	1074 ng·h/mL/mg/kg	5.1 H	12.4 mL/min/kg	3.5 L/kg	71%	CNC(=O)c1c(-c2ccc(F)cc2)oc2cc(N(Cc3cc(F)c4c(c3)COB4O)S(C)(=O)=O)c(C3CC3)cc12 [A]					DNAUC ([7]; Mouse (avg)): 9344 ng·h/mL/mg/kg; T 1/2 ([7]; Mouse (avg)): 4.3 H; clearance ([7]; Mouse (avg)): 0.9 mL/min/kg; Vd ([7]; Mouse (avg)): 0.3 L/kg; bioavailability ([7]; Mouse (avg)): 51%; DNAUC ([9]; Monkey): 33 ng·h/mL/mg/kg; T 1/2 ([9]; Monkey): 2.1 H; clearance ([9]; blood): 70.1 mL/min/kg; Vd ([9]; blood): 6.3 L/kg; bioavailability ([9]; blood): 13%
											CNC(=O)c1c(-c2ccc(Cl)cc2)oc2cc(N(c3ccc(B(O)O)c(F)c3)S(C)(=O)=O)c(C3CC3)cc12 [Example 7, 4-(N-(2-(4-chlorophenyl)-5-cyclopropyl-3-(methylcarbamoyl)benzofuran-6-yl)methylsulfonamido)-2-fluorophenylboronic acid]	1 to 10 nM	1 to 10 nM	1 to 10 nM	11 to 200 nM	
											CNC(=O)c1c(-c2ccc(F)cc2)oc2cc(N(c3ccc(B(O)O)c(C#N)c3)S(C)(=O)=O)c(C3CC3)cc12 [Example 12, (2-cyano-4-(N-(5-cyclopropyl-2-(4-fluorophenyl)-3-(methylcarbamoyl)benzofuran-6-yl)methylsulfonamido)phenyl)boronic acid]	1 to 10 nM	1 to 10 nM	1 to 10 nM	11 to 200 nM	
											CNC(=O)c1c(-c2ccc(F)cc2)oc2cc(N(c3ccc(B(O)O)cc3F)S(C)(=O)=O)c(C3CC3)cc12 [Example 6, 4-(N-(5-cyclopropyl-2-(4-fluorophenyl)-3-(methylcarbamoyl)benzofuran-6-yl)methylsulfonamido)-3-fluorophenylboronic acid]	1 to 10 nM	1 to 10 nM	11 to 200 nM	> 1000 nM	

Compound	DNAUC [1]	T 1/2 [1]	clearance [1]	Vd [1]	bioavailability [1]	half-life [2]	DNAUC [8]	T 1/2 [8]	clearance [8]	Vd [8]	bioavailability [8]	EC50 [3]	EC50 [4]	EC50 [5]	EC50 [6]	other results
CNC(=O)c1c(-c2ccc(F)cc2)oc2cc(N(c3cc(Cl)c4c(c3)COB4O)S(C)(=O)=O)c(C3CC3)cc12 [Example 15, 6-(N-(7-chloro-1-hydroxy-1,3-dihydrobenzo[c][1,2]oxaborol-5-yl)methylsulfonamido)-5-cyclopropyl-2-(4-fluorophenyl)-N-methylbenzofuran-3-carboxamide]	1089 ng·h/mL/mg/kg	2.8 H	6.9 mL/min/kg	0.9 L/kg	43%	> 6 h	11480 ng·h/mL/mg/kg	6.9 H	1.2 mL/min/kg	0.6 L/kg	82%	1 to 10 nM	1 to 10 nM	1 to 10 nM	11 to 200 nM	DNAUC ([7]; Mouse): 14603 ng·h/mL/mg/kg; T 1/2 ([7]; Mouse): 8.4 H; clearance ([7]; mouse): 0.7 mL/min/kg; Vd ([7]; mouse): 0.4 L/kg; bioavailability ([7]; mouse): 39%; T 1/2 ([9]; Monkey): 3.7 H; clearance ([9]; blood): 5.7 mL/min/kg; Vd ([9]; blood): 1.2 L/kg
